Test results taken from US20080153896A1, “Polymorphic Forms of an HMG-CoA Reductase Inhibitor and Uses Thereof” (priority 2006, published 2008).

Experiment: Stability (integrity) testing of amorphous and polymorphic form under storage conditions, RP-HPLC
Assay type: physicochemical
Set-up: key to Impurity RRT 0.738 / Impurity RRT 0.949 / Impurity RRT 1.050 / Impurity RRT 1.550 / Impurity RRT 0.136 / Impurity RRT 0.720 / Impurity RRT 0.706 / Impurity RRT 1.18 / Impurity RRT 1.826: % of total UV absorption (HPLC peak area)
Procedure: The integrity of the different forms of the (3R, 5R)-7-[2-(4-fluorophenyl)-5-isopropyl-3-phenyl-4-[(4-hydroxymethylphenylamino)carbonyl]-pyrrol-1-yl]-3,5-dihydroxy-heptanoic acid, hemi calcium salt, was tested under different atmospheric conditions to determine the stability of the amorphous and polymorphic form of the drug in various storage environments. Reversed Phase-HPLC (RP-HPLC) was used to separate (3R, 5R)-7-[2-(4-fluorophenyl)-5-isopropyl-3-phenyl-4-[(4-hydroxymethylphenylamino)carbonyl]-pyrrol-1-yl]-3,5-dihydroxy-heptanoic acid, hemi calcium salt, from smaller molecules representing breakdown products as well as oxidized drug. The relative amount of the drug was reported as a percent of total absorption by UV. The total peak area of all UV absorption impurities was used to define total impurity of the drug. Impurities are defined by their relative retention time (RRT) compared to native drug. Samples were injected onto a C18 column using standard temperature, gradient and run-time conditions.
The results of this integrity testing for the amorphous form of (3R, 5R)-7-[2-(4-fluorophenyl)-5-isopropyl-3-phenyl-4-[(4-hydroxymethylphenylamino)carbonyl]-pyrrol-1-yl]-3,5-dihydroxy-heptanoic acid, hemi calcium salt, is shown in Table 5.
Three separate batches of polymorphic Form I of (3R, 5R)-7-[2-(4-fluorophenyl)-5-isopropyl-3-phenyl-4-[(4-hydroxymethylphenylamino)carbonyl]-pyrrol-1-yl]-3,5-dihydroxy-heptanoic acid, hemi calcium salt, were prepared and tested under the same atmospheric conditions described for the amorphous form.

[1] = 25° C./60% RH 12M, hemi calcium salt
[2] = 30° C./65% RH 1M, hemi calcium salt
[3] = 30° C./65% RH 2M, hemi calcium salt
[4] = 30° C./65% RH 3M, hemi calcium salt
[5] = 30° C./65% RH 6M, hemi calcium salt
[6] = 30° C./65% RH 9M, hemi calcium salt
[7] = 30° C./65% RH 12M, hemi calcium salt
[8] = 40° C./75% RH 1M, hemi calcium salt
[9] = 40° C./75% RH 2M, hemi calcium salt
[10] = 40° C./75% RH 3M, hemi calcium salt
[11] = 40° C./75% RH 6M, hemi calcium salt
[12] = Initial, listed as Batch 1 of Polymorphic Form I, hemi calcium salt

Highest Impurity [1]: 0.412
Impurity RRT 0.935 [1]: 0.412
Impurity RRT 1.045 [1]: 0.396
Impurity RRT 1.640 [1]: 0.051
Total Impurity [1]: 1.318
Water [1]: 5.47 % W/W
Description (30° C./65% RH 1M): White
Impurity RRT 1.094 (30° C./65% RH 1M): 0.149
Impurity RRT 1.437 (30° C./65% RH 1M): 0.161
Impurity RRT 1.593 (30° C./65% RH 1M): 0.061
Impurity RRT 1.694 (30° C./65% RH 1M): 0.060
Water (30° C./65% RH 1M): 4.16 % W/W
Assay [2]: 98.25 % W/W
Highest Impurity [2]: 0.370
Impurity RRT 0.935 [2]: 0.370
Impurity RRT 1.045 [2]: 0.300
Impurity RRT 1.64 [2]: 0.047
Total Impurity [2]: 1.228
Description (30° C./65% RH 2M): White
Impurity RRT 1.094 (30° C./65% RH 2M): 0.16
Impurity RRT 1.180 (30° C./65% RH 2M): 0.044
Impurity RRT 1.437 (30° C./65% RH 2M): 0.163
Impurity RRT 1.593 (30° C./65% RH 2M): 0.080
Impurity RRT 1.694 (30° C./65% RH 2M): 0.062
Assay [3]: 98.23 % W/W
Highest Impurity [3]: 0.390
Impurity RRT 0.935 [3]: 0.390
Impurity RRT 1.045 [3]: 0.374
Impurity RRT 1.64 [3]: 0.044
Total Impurity [3]: 1.320
Water [3]: 3.85 % W/W
Description (30° C./65% RH 3M): White
Impurity RRT 1.094 (30° C./65% RH 3M): 0.167
Impurity RRT 1.437 (30° C./65% RH 3M): 0.168
Impurity RRT 1.593 (30° C./65% RH 3M): 0.081
Impurity RRT 1.694 (30° C./65% RH 3M): 0.066
Assay [4]: 98.15 % W/W
Highest Impurity [4]: 0.416
Impurity RRT 0.935 [4]: 0.416
Impurity RRT 1.045 [4]: 0.405
Impurity RRT 1.64 [4]: 0.048
Total Impurity [4]: 1.350
Water [4]: 4.73 % W/W
Description (30° C./65% RH 6M): White
Impurity RRT 0.136 (30° C./65% RH 6M): 0.049
Impurity RRT 1.094 (30° C./65% RH 6M): 0.140
Impurity RRT 1.437 (30° C./65% RH 6M): 0.150
Impurity RRT 1.593 (30° C./65% RH 6M): 0.077
Impurity RRT 1.694 (30° C./65% RH 6M): 0.044
Assay [5]: 98.08 % W/W
Highest Impurity [5]: 0.361
Impurity RRT 0.935 [5]: 0.355
Impurity RRT 1.045 [5]: 0.361
Impurity RRT 1.640 [5]: 0.042
Total Impurity [5]: 1.218
Water [5]: 5.62 % W/W
Description (30° C./65% RH 9M): White
Impurity RRT 0.136 (30° C./65% RH 9M): 0.056
Impurity RRT 1.094 (30° C./65% RH 9M): 0.134
Impurity RRT 1.437 (30° C./65% RH 9M): 0.147
Impurity RRT 1.593 (30° C./65% RH 9M): 0.080
Impurity RRT 1.694 (30° C./65% RH 9M): 0.051
Assay [6]: 98.15 % W/W
Highest Impurity [6]: 0.387
Impurity RRT 0.935 [6]: 0.387
Impurity RRT 1.045 [6]: 0.351
Impurity RRT 1.640 [6]: 0.033
Total Impurity [6]: 1.239
Water [6]: 5.55 % W/W
Impurity RRT 0.136 (30° C./65% RH 12M): 0.240
Impurity RRT 1.094 (30° C./65% RH 12M): 0.120
Impurity RRT 1.437 (30° C./65% RH 12M): 0.148
Impurity RRT 1.593 (30° C./65% RH 12M): 0.075
Impurity RRT 1.694 (30° C./65% RH 12M): 0.055
Assay [7]: 98.09 % W/W
Highest Impurity [7]: 0.375
Impurity RRT 0.935 [7]: 0.375
Impurity RRT 1.045 [7]: 0.372
Impurity RRT 1.640 [7]: 0.044
Total Impurity [7]: 1.492
Water [7]: 5.91 % W/W
Description (40° C./75% RH 1M): White
Impurity RRT 1.094 (40° C./75% RH 1M): 0.167
Impurity RRT 1.437 (40° C./75% RH 1M): 0.155
Impurity RRT 1.593 (40° C./75% RH 1M): 0.085
Impurity RRT 1.694 (40° C./75% RH 1M): 0.071
Assay [8]: 98.22 % W/W
Highest Impurity [8]: 0.405
Impurity RRT 0.935 [8]: 0.405
Impurity RRT 1.045 [8]: 0.39
Impurity RRT 1.64 [8]: 0.05
Total Impurity [8]: 1.323
Water [8]: 4.52 % W/W
Description (40° C./75% RH 2M): White
Impurity RRT 1.094 (40° C./75% RH 2M): 0.164
Impurity RRT 1.180 (40° C./75% RH 2M): 0.049
Impurity RRT 1.437 (40° C./75% RH 2M): 0.169
Impurity RRT 1.593 (40° C./75% RH 2M): 0.082
Impurity RRT 1.694 (40° C./75% RH 2M): 0.067
Assay [9]: 98.16 % W/W
Highest Impurity [9]: 0.408
Impurity RRT 0.935 [9]: 0.407
Impurity RRT 1.045 [9]: 0.408
Impurity RRT 1.64 [9]: 0.046
Total Impurity [9]: 1.39
Water [9]: 4.63 % W/W
Description (40° C./75% RH 3M): White
Impurity RRT 1.094 (40° C./75% RH 3M): 0.162
Impurity RRT 1.437 (40° C./75% RH 3M): 0.167
Impurity RRT 1.593 (40° C./75% RH 3M): 0.094
Impurity RRT 1.694 (40° C./75% RH 3M): 0.056
Assay [10]: 98.11 % W/W
Highest Impurity [10]: 0.403
Impurity RRT 0.935 [10]: 0.403
Impurity RRT 1.045 [10]: 0.396
Impurity RRT 1.64 [10]: 0.049
Total Impurity [10]: 1.330
Water [10]: 4.64 % W/W
Description (40° C./75% RH 6M): White
Impurity RRT 1.094 (40° C./75% RH 6M): 0.146
Impurity RRT 1.437 (40° C./75% RH 6M): 0.151
Impurity RRT 1.593 (40° C./75% RH 6M): 0.098
Impurity RRT 1.694 (40° C./75% RH 6M): 0.074
Assay [11]: 98.22 % W/W
Highest Impurity [11]: 0.391
Impurity RRT 0.935 [11]: 0.391
Impurity RRT 1.045 [11]: 0.351
Impurity RRT 1.640 [11]: 0.031
Total Impurity [11]: 1.242
Water [11]: 5.55 % W/W
Description (Initial): White
Impurity RRT 0.720 (Initial): 0.046
Impurity RRT 1.094 (Initial): 0.142
Impurity RRT 1.437 (Initial): 0.162
Impurity RRT 1.593 (Initial): 0.079
Impurity RRT 1.694 (Initial): 0.068
Assay [12]: 98.48 % W/W
Highest Impurity [12]: 0.411
Impurity RRT 1.045 [12]: 0.385
Impurity RRT 1.64 [12]: 0.046
Total Impurity [12]: 1.340
Water [12]: 4.55 % W/W
SMILES: CC(C)c1c(C(=O)Nc2ccc(CO)cc2)c(-c2ccccc2)c(-c2ccc(F)cc2)n1CC[C@@H](O)C[C@@H](O)CC(=O)[O-].CC(C)c1c(C(=O)Nc2ccc(CO)cc2)c(-c2ccccc2)c(-c2ccc(F)cc2)n1CC[C@@H](O)C[C@@H](O)CC(=O)[O-].[Ca+2] [PP00405, (3R, 5R)-7-[2-(4-fluorophenyl)-5-isopropyl-3-phenyl-4-[(4-hydroxymethylphenylamino)carbonyl]-pyrrol-1-yl]-3,5-dihydroxy-heptanoic acid, hemi calcium salt]
